Experiments:
[1] = Storage stability of the radioiodinated aldehyde in the refrigerator; assay type: physicochemical
Text: (§1) For synthesis of ^125I-labeled aldehyde [^125I] 5, specific radioactive analogue 4-iodo-N-(4-oxobutyl) benzamide) 5 was synthesized by coupling of 4-aminobutyraldehyde diethyl acetal with 4-iodobenzoic acid under basic conditions and a subsequent reduction under acidic conditions (Scheme 1). The radioiodination shown in 6 was achieved using [^125I] NaI and chloramines-T as oxidants (Scheme 3). The radioiodination reaction was terminated by adding an aqueous solution of sodium metabisulfite. After HPLC purification of the crude product, [^125I] 5 was obtained with high radiochemical yield (72±6%, n=5). The specific activity was 45 GBq/μmol and the chemical purity was more than 99%. In the HPLC chromatogram of the crude mixture, the main product [^125I] 5 was clearly shown at 22.6 minutes (FIG. 1). Radio-labeling reactions were performed by using various amounts of radioisotopes (100 μCi to 1 mCi), but the radiochemical results were consistent. The radioactive iodine compound [^125I] […] The compound [^125I]

[2] = In vitro stability in various media at 37° C. (radio-HPLC); assay type: in vitro ADME
Text: as §1

O=CCCCNC(=O)c1ccc([125I])cc1 [[^125I] 5]
hydrolysis ([1]; compared with active ester-based prosthetic groups (Bolton-Hunter-reagent)): not hydrolyzed
time found to be stable in the refrigerator ([1]; refrigerator (4° C.)): more than 6 months
time shown to be stable in medium ([2]; PBS): ≥ 24 h
time shown to be stable in medium ([2]; mouse serum): ≥ 24 h
time shown to be stable in medium ([2]; saline): ≥ 24 h

Source: patent US11298431B2, “Method for labeling radioisotope radiolabeling compound and kit comprising the same for labeling radioisotope” (KOREA ATOMIC ENERGY RESEARCH INSTITUTE, priority 2018, dated 2022)
